Drawing on US9499550B2 (BRISTOL-MYERS SQUIBB COMPANY, priority 2012, dated 2016), this text covers EC50 and sustained efficacy for four compounds.

Experiment [1] relates to HCV genotype 1a (H77 strain) replicon in HUH-7 cells. Kind of experiment: HCV replicon luciferase reporter assay, genotype 1a. The format is cell-based. To be noted: Hepatitis C virus, Huh-7, 72 h, HCV genotype 1a replicon luciferase, 3 days incubation, read-out: LE_1a (EC50, range). The method, boiled down: (§1)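 Replicon inhibition for both genotypes was measured as Renilla luciferase signal (EnduRen, 7.5 μM final, 2 h) after 3-day, 37° C exposure of replicon-bearing HUH-7 cells in 4% FCS DMEM, 0.5% DMSO. The 1b construct carries S1179I; the 1a H77 construct carries P1496L and S2204I. Twenty-point, 3-fold dilutions were fitted four-parametrically for EC50, and CC50 was taken from multiplexed Cell Titer-Blue.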

Experiment [2] has as its system HCV genotype 1b (Con1) replicon in HUH-7 cells. Briefly: HCV replicon luciferase reporter assay, genotype 1b. Particulars: Hepatitis C virus, Huh-7, 72 h, HCV genotype 1b replicon luciferase, 3 days incubation, read-out: LE_1b (EC50, range). The format is cell-based. The method, boiled down: as §1
The test system of a further experiment is HCV. Particulars: combination therapy, HCV infected patients; cited from earlier work.

Regarding `CCOc1cc2ccccc2c(O[C@@H]2C[C@H]3C(=O)N[C@]4(C(=O)NS(=O)(=O)C5(CF)CC5)C[C@H]4/C=C\CC[C@@H](C)C[C@@H](C)[C@H](NC(=O)OC(C)(C)C(C)(F)F)C(=O)N3C2)n1` [Compound 6114, 3,3-difluoro-2-methylbutan-2-yl((2R,6S,7R,9R,13aS,14aR,16aS,Z)-2-((3-ethoxyisoquinolin-1-yl)oxy)-14a-(((1-(fluoromethyl)cyclopropyl)sulfonyl)carbamoyl)-7,9-dimethyl-5,16-dioxo-1,2,3,5,6,7,8,9,10,11,13a,14,14a,15,16,16a-hexadecahydrocyclopropa[e]pyrrolo[1,2-a][1,4]diazacyclopentadecin-6-yl)carbamate], the EC50 lay within 1.01 to 5 nM in experiment [1] and 0.1 to 0.5 nM in experiment [2].
On to `CC(C)Oc1cc2ccccc2c(O[C@@H]2C[C@H]3C(=O)N[C@]4(C(=O)NS(=O)(=O)C5(CF)CC5)C[C@H]4/C=C\CC[C@@H](C)C[C@@H](C)[C@H](NC(=O)OC(C)(C)C(F)(F)F)C(=O)N3C2)n1` [Compound 6116, 1,1,1-trifluoro-2-methylpropan-2-yl((2R,6S,7R,9R,13aS,14aR,16aS,Z)-14a-(((1-(fluoromethyl)cyclopropyl)sulfonyl)carbamoyl)-2-((3-isopropoxyisoquinolin-1-yl)oxy)-7,9-dimethyl-5,16-dioxo-1,2,3,5,6,7,8,9,10,11,13a,14,14a,15,16,16a-hexadecahydrocyclopropa[e]pyrrolo[1,2-a][1,4]diazacyclopentadecin-6-yl)carbamate], for which the EC50 in experiment [1] and in experiment [2] was 1.01 to 5 nM each time.
`CC(C)Oc1cc2ccccc2c(O[C@@H]2C[C@H]3C(=O)N[C@]4(C(=O)NS(=O)(=O)C5(CF)CC5)C[C@H]4/C=C\CC[C@@H](C)C[C@@H](C)[C@H](NC(=O)OC(C)(C)C(C)(F)F)C(=O)N3C2)n1` [Compound 6118, 3,3-difluoro-2-methylbutan-2-yl((2R,6S,7R,9R,13aS,14aR,16aS,Z)-14a-(((1-(fluoromethyl)cyclopropyl)sulfonyl)carbamoyl)-2-((3-isopropoxyisoquinolin-1-yl)oxy)-7,9-dimethyl-5,16-dioxo-1,2,3,5,6,7,8,9,10,11,13a,14,14a,15,16,16a-hexadecahydrocyclopropa[e]pyrrolo[1,2-a][1,4]diazacyclopentadecin-6-yl)carbamate]: the EC50 in experiment [1] and in experiment [2] was 1.01 to 5 nM throughout.
As to alpha-interferon and ribavirin, the sustained efficacy with HCV is listed as 40 % of patients.
